Experimental data from patent publication US8999384B2, “Immediate release compositions of acid labile drugs” (priority 2010, dated 2015).

Experiment: Acid neutralizing capacity of buffers: buffer added to basal SGF and titrated with excess 0.1N HCl for 1 hour
Type: physicochemical
Details: for initial rise in pH: at the buffer quantity required to neutralize the SGF (quantity stated per buffer); for pH upon addition of excess acid for a period of 1 h: at the buffer quantity required to neutralize the SGF, 0.1N HCl at 0.5 ml/minute; for quantity of buffer required to neutralize the basal SGF: basal SGF: 9.6 ml of 0.1N HCl + 210 ml of water
Method: A number of buffers, both soluble and insoluble, were tested for their acid neutralizing capacity. Based on their acid neutralizing capacity, buffers, both individual and combination, were evaluated for their behavior at the excess secretion of acid. The technique involved consists of adding an excess dose of the buffer to a sample of artificial gastric juice. […] The model was simulated in vitro and the buffer was added to the basal SGF medium containing 9.6 ml of 0.1N HCl+210 ml of water and titrated with excess acid (0.1N HCl) at the rate of 0.5 ml/minute for a period of 1 hour (total volume=250 ml). The buffer(s) which maintained a pH above 6.0 at the excess secretion of acid was selected.

| initial rise in pH | pH upon addition of excess acid for a period of 1 h | quantity of buffer required to neutralize the basal SGF | Compound |
| --- | --- | --- | --- |
| 7 | 7 | About 80 mg | [Mg+2].[O-2] [Heavy Magnesium oxide] |
| 8 | 8 | About 1000 mg | NC(CO)(CO)CO [Tromethamine] |
